Reference: ChEMBL document CHEMBL1158300, “New Cephalotaxus Alkaloids from Cephalotaxus harringtonia var. drupacea” (J Nat Prod, 1996)
≈ marks a conversion by molar mass, not a printed value.

Tested on: P388
Assay: Cytotoxicity against mouse P388 cells
Format: functional, cell-based

SMILES	IC50 [µg/mL]
COC(=O)C[C@](O)(CCCCC(C)C)C(=O)O[C@@H]1C(OC)=C[C@]23CCCN2CCc2cc4c(cc2[C@H]13)OCO4 [BISHOMODEOXYHARRINGTONINE]	0.024 (≈ 0.0441 µM)
COC(=O)C[C@](O)(CCCC(C)C)C(=O)O[C@@H]1C(OC)=C[C@]23CCCN2CCc2cc4c(cc2[C@H]13)OCO4 [HOMODEOXYHARRINGTONINE]	0.056 (≈ 0.106 µM)
COC(=O)C[C@](O)(CC(C)C)C(=O)O[C@@H]1C(OC)=C[C@]23CCCN2CCc2cc4c(cc2[C@H]13)OCO4 [NORDEOXYHARRINGTONINE]	0.027 (≈ 0.0538 µM)
